Source: patent publication US9340543B2, “Helquat derivatives, preparation thereof, and use thereof as medicaments” (USTAV ORGANICKE CHEMIE A BIOCHEMIE AKADEMIE VED CR, V.V.I., priority 2013, dated 2016)

How the values were obtained:
Type in all cases: cell-based
LoVo = experiment: CellTiter-Glo luminescent cell viability assay (ATP quantification), LoVo; conditions: colorectal carcinoma cells, 72 h treatment, viable cells by ATP luminescence, class symbols
Method: (§1) Influence of the test compounds on viability (proliferation) of cell lines used was investigated in concentration range 0-100 μmol·l^−1.
Adherent cell line LoVo is a permanent in vitro culture derived from tissue of a patient with colorectal carcinoma. LoVo cell line was cultivated in DMEM medium (Sigma-Aldrich, cat. no. D8437) with addition of 2 mmol·l^−1 glutamine (Invitrogen, see above), 10% fetal bovine serum (FBS, Sigma-Aldrich, see above), 100 IU/ml peniciline, 100 μg/ml streptomycine (Sigma-Aldrich, see above). Passaging was performed twice a week. After washing of cells with sterile PBS, the cells were released by 0.25% trypsin/EDTA (Sigma-Aldrich, see above) at 37° C. for 2 minutes. The trypsin was inactivated by addition of 2 volumes of complete medium, cells were then centrifuged (250×g, 5 min), resuspended, and transferred in the amount needed into a new cultivation bottle with fresh medium. Population doubling time of LoVo cell line was 39 h under the cultivation conditions used.
(§2) In order to test the sensitivity of the cell lines towards the studied helquats, cytotoxity test for cell viability assessment based on ATP quantification in cell lysates was used (CellTiter-Glo® Luminescent Cell Viability Assay, Promega, cat. no. G7571). In this test, ATP in cell lysates is detected using luciferase reaction. Luminescence intensity correlates with the ATP level and thus with quantity of metabolically active (viable) cells. IC50 value serves as the output, that is the concentration of the test compound which leads to 50% reduction in number of viable cells as compared to control, untreated population. To this end, IC50 value reflects efficiency of the test compound with regard to the given cell line.
(§3) Cells in the exponential growth phase were seeded into a 96-well microtiter plate were plated at 3000 cells per well. Each well contained 90 μl of cell suspension. The next day, 10 μl of 10× concentrated test compound solutions were added. The effect of helquats was investigated in concentration range 1 to 100 μmol·l^−1 (e.g. 1; 2.5; 5; 7.5; 10; 15; 25; 50 and 100 μmol·l^−1). Apart from the section containing the concentration series of the test compound, each well contained 2 control columns, the first with pure medium (so called blank) and the second with cells in medium without the test compounds (control). Into wells containing controls and blanks, volume of solvent (water) equal to the volume of added compound solutions was added. After 72 h of incubation with the test compounds viability was determined according to the manufacturer's instructions. In short: microtiter well plate was left 30 min to reach the room temperature after it has been removed from the incubator. Then, into each well, 100 μl of the prepared detection agent was added. Next, the well plate was shaken for 2 min to complete the full lysis. Next, after the well had been left in the dark for 15 min, the luminescence was measured in each well using luminometer (Tecan Genios, Austria).
(§4) IC50 value represents concentration of the test compound, which leads to 50% reduction of viable cells (inhibition of cell growth) after 72 h of the treatment. Each helquat concentration was tested in triplicates in a IC50 quantification and at least 3 independent IC50 quantification experiments were performed. IC50 values over 100 μmol·l^−1 were obtained by extrapolation of data measured in concentration range 0-100 μmol·l^−1 for the given helquat.

HL-60 = experiment: CellTiter-Glo luminescent cell viability assay (ATP quantification), HL-60; conditions: acute promyelocytic leukemia cells, 72 h treatment, viable cells by ATP luminescence
Method: as §1
Suspension cell line HL-60 is a permanent in vitro culture of acute promyelocytic leukemia. HL-60 cell line was cultivated in RPMI 1640 medium (Sigma-Aldrich, see above) with addition of 2 mmol·l^−1 glutamine (Invitrogen, see above), 10% fetal bovine serum (FBS, Sigma-Aldrich, see above), 100 IU/ml peniciline, 100 μg/ml streptomycine (Sigma-Aldrich, see above). Passaging was performed 2-3× a week. Population doubling time of HL-60 cell line was 23 h under the cultivation conditions used.
as §2, §3, §4

NHDF-Ad = experiment: CellTiter-Glo luminescent cell viability assay (ATP quantification), NHDF-Ad normal cells; conditions: normal human dermal fibroblasts, 72 h treatment
Description: as §1
Normal human dermal fibroblasts were cultivated without antibiotics in basal medium for fibroblasts (ATCC/LGC Standards, cat. no. PCS-201-030) with added “Fibroblast Growth Kit-Low serum” (ATCC/LGC Standards, cat. no. PCS-201-041) containing 2% FBS, L-glutamine, hydrocortisone, ascorbic acid, rh FGF beta, rh insulin. When 90% confluency was reached the fibroblasts were washed with sterile PBS (5 ml) and dissociated by addition of 0.25% solution of trypsin/EDTA (2 ml; 2 min; 37° C.). After that 5 ml of cultivation medium for fibroblasts was added and the cells were centrifuged (180×g, 7 min), the cell pellet was resuspended, and transferred in the amount needed into a new cultivation bottle with fresh medium. The same cell release procedure was applied when the cells were to be used in experiments. The cells were used in experiments between the 3rd and the 15th passage after defreeezing. Population doubling time of NHDF-Ad cell line was 33 h under the cultivation conditions used.
as §2, §3, §4

[1] = viable cells by ATP luminescence, class symbols

IC50 (LoVo) [µM]	IC50 (HL-60) [µM]	IC50 (LoVo; Homo sapiens, LoVo) [µM]	IC50 (HL-60; Homo sapiens, HL-60) [µM]	Compound	IC50 (NHDF-Ad; [1]) [µM]	IC50 (NHDF-Ad; Fibroblast, numeric bound, values over 100 obtained by extrapolation of data measured at 0-100 μmol·l−1) [µM]
11 to 50	< 10			Cc1c(C)c2c(c3c1CC[n+]1ccc(/C=C/c4ccc(N(C)C)cc4)cc1-3)-c1c3ccccc3cc[n+]1CC2 [(M)-1, (M)-(E)-13-(4-(dimethylamino)styryl)-6,7-dimethyl-4,5,8,9-tetrahydroiso-quinolino[1,2-a]pyrido[1,2-k][2,9]phenanthroline-3,10-diium trifluoromethanesulfonate]	51 to 150	
		11 to 50	11 to 50	COc1ccc(/C=C/c2cc[n+]3c(c2)-c2c(c(C)c(C)c4c2-c2c5ccccc5cc[n+]2CC4)CC3)cc1 [(M)-6, (M)-(E)-13-(4-methoxystyryl)-6,7-dimethyl-4,5,8,9-tetrahydroisoquinolino[1,2-a]pyrido[1,2-k][2,9]phenanthroline-3,10-diium trifluoromethanesulfonate]		> 150
11 to 50	< 10			COc1ccc2cc(/C=C/c3cc[n+]4c(c3)-c3c(c(C)c(C)c5c3-c3c6ccccc6cc[n+]3CC5)CC4)ccc2c1 [(M)-7, (M)-(E)-13-(2-(6-methoxynaphthalene-2-yl)vinyl)-6,7-dimethyl-4,5,8,9-tetrahydroisoquinolino[1,2-a]pyrido[1,2-k][2,9]phenanthroline-3,10-diium trifluoromethanesulfonate]	51 to 150	
